Experimental data from patent US8552049B2, “Pyrazolecarboxamide derivatives and their use as microbiocides” (Syngenta Corp Protection, LLC, priority 2010, dated 2013).
One block for each molecule: values may come before it.

Legend:
Botrytis cinerea = assay: Action against Botrytis cinerea - fungal growth assay; format: cell-based; conditions: 0.002% active ingredient, PDB nutrient broth, 24° C., photometrically after 3-4 days
Experimental: (§1) Action Against Botrytis cinerea—Fungal Growth Assay Conidia of the fungus from cryogenic storage was directly mixed into nutrient broth (PDB potato dextrose broth). After placing a (DMSO) solution of the test compounds (0.002% active ingredient) into a microtiter plate (96-well format) the nutrient broth containing the fungal spores was added. The test plates were incubated at 24° C. and the inhibition of growth was measured photometrically after 3-4 days. The activity of a compound was expressed as fungal growth inhibition (0=no growth inhibition, ratings of 80% to 99% mean good to very good inhibition, 100%=complete inhibition). Compounds 1.003 and 1.004 show very good activity in this test (≧80% inhibition).

Septoria tritici = assay: Action against Septoria tritici - fungal growth assay; format: cell-based; conditions: Zymoseptoria tritici; 0.002% active ingredient, PDB nutrient broth, 24° C., photometrically after 72 hrs
Experimental: as §1, with “Against Septoria tritici—Fungal” for “Against Botrytis cinerea—Fungal”, “storage were” for “storage was”, “was determined” for “was measured”, “after 72 hrs.” for “after 3-4 days.”, “inhibition).” for “inhibition). Compounds 1.003 and 1.004 show very good activity in this test (≧80% inhibition).”

Monographella nivalis = assay: Action against Monographella nivalis (snow mould) - fungal growth assay; format: cell-based; conditions: 0.002% active ingredient, PDB nutrient broth, 24° C., photometrically after 72 hrs
Experimental: Action Against Monographella nivalis (Anamorph: Fusarium nivale, Microdochium nivale; Snow Mould)—Fungal Growth Assay Conidia of the fungus from cryogenic storage were directly mixed into nutrient broth (PDB potato dextrose broth). After placing a DMSO-solution of the test compounds (0.002% active ingredient) into a microtiter plate (96-well format) the nutrient broth containing the fungal spores was added. The test plates were incubated at 24° C. and the inhibition of growth was measured photometrically after 72 hrs (0=no growth inhibition, ratings of 80% to 99% mean good to very good inhibition, 100%=complete inhibition).

Puccinia recondita [1] = assay: Curative action against Puccinia recondita (brown rust) on wheat leaf segments; format: in vivo; conditions: foliar, wheat leaf segments sprayed with 0.02% active ingredient one day after inoculation, assessed 8 days after inoculation, read-out: curative fungicidal activity (inhibition)
Experimental: Curative Action Against Puccinia recondita (Brown Rust) on Wheat Wheat leaf segments were placed on agar in multiwell plates (24-well format) and inoculated with a spore suspension of the fungus. One day after inoculation the leaf segments were sprayed with test solutions (0.02% active ingredient). After appropriate incubation the activity of a compound was assessed 8 days after inoculation as curative fungicidal activity.

Pyrenophora teres = assay: Action against Pyrenophora teres (net blotch) on barley leaf segments; format: in vivo; conditions: foliar, 96 h, barley leaf segments sprayed with 0.02% active ingredient, assessed 4 days after inoculation, read-out: preventive fungicidal activity (inhibition)
Experimental: Action Against Pyrenophora teres (Net Blotch) on Barley Barley leaf segments were placed on agar in multiwell plates (24-well format) and sprayed with test solutions (0.02% active ingredient). After drying, the leaf disks were inoculated with a spore suspension of the fungus. After appropriate incubation the activity of a compound was assessed 4 days after inoculation as preventive fungicidal activity. Compounds 1.003 and 1.004 show very good activity in this test (≧80% inhibition).

[2] = system: Erysiphe graminis f.sp. tritici; assay: Action against Erysiphe graminis f.sp. tritici (wheat powdery mildew), wheat leaf segments; format: in vivo; conditions: Blumeria graminis, foliar, 168 h; wheat leaf segments sprayed with 0.02% active ingredient, assessed 7 days after inoculation; read-out: preventive fungicidal activity (inhibition)
Experimental: Action Against Erysiphe graminis f.sp. tritici (Wheat Powdery Mildew) Wheat leaf segments were placed on agar in multiwell plates (24-well format) and sprayed with test solutions (0.02% active ingredient). After drying, the leaf disks were inoculated with a spore suspension of the fungus. After appropriate incubation the activity of a compound was assessed 7 days after inoculation as preventive fungicidal activity.

Mycosphaerella arachidis = assay: Action against Mycosphaerella arachidis (early leaf spot of groundnut) - fungal growth assay; format: cell-based; conditions: 0.002% active ingredient, PDB nutrient broth, 24° C., photometrically after 6-7 days
Experimental: as §1, with “Against Mycosphaerella arachidis (Early Leaf Spot of Groundnut; Cercospora arachidicola [Anamorph])—Fungal” for “Against Botrytis cinerea—Fungal”, “storage were” for “storage was”, “after 6-7” for “after 3-4”

Puccinia recondita [3] = assay: Protective action against Puccinia recondita (brown rust) on wheat leaf segments; format: in vivo; conditions: foliar, 192 h, wheat leaf segments sprayed with 0.02% active ingredient, assessed 8 days after inoculation, read-out: preventive fungicidal activity (inhibition)
Experimental: Protective Action Against Puccinia recondita (Brown Rust) on Wheat Wheat leaf segments were placed on agar in multiwell plates (24-well format) and sprayed with test solutions (0.02% active ingredient). After drying, the leaf disks were inoculated with a spore suspension of the fungus. After appropriate incubation the activity of a compound was assessed 8 days after inoculation as preventive fungicidal activity.

Structure (SMILES): CON(C(=O)c1cn(C)nc1C(F)F)C(CF)Cc1ccc(Cl)cc1Cl (stereo not drawn) [Compound 1.003, 3-difluoromethyl-1-methyl-1H-pyrazole-4-carboxylic acid [2-(2,4-dichloro-phenyl)-1-fluoromethyl-ethyl]-methoxy-amide]
inhibition at 0.002 % strength (Botrytis cinerea): ≥ 80%
inhibition at 0.002 % strength (Septoria tritici): ≥ 80%
inhibition at 0.002 % strength (Monographella nivalis): ≥ 80%
inhibition at 0.02 % strength (Puccinia recondita [1]): ≥ 80%
inhibition at 0.02 % strength (Pyrenophora teres): ≥ 80%
inhibition at 0.02 % strength [2]: ≥ 80%
inhibition at 0.002 % strength (Mycosphaerella arachidis): ≥ 80%
inhibition at 0.02 % strength (Puccinia recondita [3]): ≥ 80%

melting point: 117 to 118 °C
Structure (SMILES): CON(C(=O)c1cn(C)nc1C(F)F)C(CF)Cc1c(Cl)cc(Cl)cc1Cl (stereo not drawn) [Compound 1.004, 3-difluoromethyl-1-methyl-1H-pyrazole-4-carboxylic acid [1-fluoromethyl-2-(2,4,6-trichlorophenyl)-ethyl]-methoxy-amide]
inhibition at 0.002 % strength (Botrytis cinerea): ≥ 80%
inhibition at 0.002 % strength (Septoria tritici): ≥ 80%
inhibition at 0.002 % strength (Monographella nivalis): ≥ 80%
inhibition at 0.02 % strength (Puccinia recondita [1]): ≥ 80%
inhibition at 0.02 % strength (Pyrenophora teres): ≥ 80%
inhibition at 0.02 % strength [2]: ≥ 80%
inhibition at 0.002 % strength (Mycosphaerella arachidis): ≥ 80%
inhibition at 0.02 % strength (Puccinia recondita [3]): ≥ 80%

melting point: 131 to 133 °C
Structure (SMILES): CON(C(=O)c1cn(C)nc1C(F)(F)F)C(CF)Cc1c(Cl)cc(Cl)cc1Cl (stereo not drawn) [Compound 3.004, 1-methyl-3-trifluoromethyl-1H-pyrazole-4-carboxylic acid [1-fluoromethyl-2-(2,4,6-trichlorophenyl)-ethyl]-methoxy-amide]
